Laboratory results taken from patent US20250388605A1, “HETEROBIFUNCTIONAL COMPOUNDS AND METHODS OF TREATING DISEASE” (Halda Therapeutics OpCo, Inc., priority 2022, published 2025).

Columns and labels:
[1] = test system: T-Rex 293 cell line SC3 cells having increased expression of androgen receptor protein due to exposure to doxycycline; experiment: Cellular growth inhibition, T-Rex 293 SC3 cells with doxycycline (increased androgen receptor expression), CellTiter-Glo; format: cell-based; conditions: T-Rex 293 SC3 cells with 10 ng/mL doxycycline (increased androgen receptor expression), 72 hours, CellTiter-Glo 2.0
How it was run: (§1)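 Doxycycline (10 ng/mL) was either included or omitted to toggle wild-type androgen receptor expression in SC3 cells, a T-Rex 293 clone, grown in stripped-serum, phenol red-free medium. After 72 hours with compound, viable cells were quantified by CellTiter-Glo 2.0.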

[2] = test system: T-Rex 293 cell line SC3 cells lacking increased expression of androgen receptor protein; experiment: Cellular growth inhibition, T-Rex 293 SC3 cells without doxycycline (no increased androgen receptor expression), CellTiter-Glo; format: cell-based; conditions: T-Rex 293 SC3 cells not exposed to doxycycline (no increased androgen receptor expression), 72 hours
How it was run: as §1

VCaP cells = experiment: Cellular growth inhibition assay for VCaP cells, CellTiter-Glo; format: cell-based, human; conditions: 72 hours
How it was run: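 GI50 values come from four-parameter curve fits of luminescence data normalized to a zero baseline. Compound, in medium with 0.5% DMSO, was added one day after plating and left for 72 h before CellTiter-Glo 2.0 addition.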

T47D cells = experiment: Cellular Growth Inhibition Assay for T47D Cells (CellTiter-Glo); format: cell-based, human; conditions: 72 hours
How it was run: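 GI50 values derive from four-parameter regression of CellTiter-Glo 2.0 luminescence, using zero luminescence as baseline. Human breast cancer T47D cells (3000/well; DMEM, 10% FBS, 0.2 units/mL insulin) were exposed for 72 h to compound dilutions at 0.5% DMSO, with dosing starting 24 h after seeding.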

SMILES | GI50 [1] [µM] | GI50 [2] [µM] | GI50 (VCaP cells; Homo sapiens) [µM] | GI50 (T47D cells; Homo sapiens) [µM] | GI50 (VCaP cells) [µM] | GI50 (T47D cells) [µM]
CC(C)c1ccc(Oc2cccc(N3CC(N4CCN(c5ncc(C(=O)N[C@H]6C(C)(C)[C@H](Oc7ccc(C#N)c(Cl)c7)C6(C)C)cn5)CC4)C3)c2F)c(-c2cn(C)c(=O)c3[nH]ccc23)c1 [Compound I-123] | < 0.5 | > 3 | > 3 | 0.5 to 1.5 | – | –
CC(C)c1ccc(Oc2cccc(CCCN3CCN(c4ncc(C(=O)NC5C(C)(C)C(Oc6ccc(C#N)c(Cl)c6)C5(C)C)cn4)CC3)c2)c(-c2cn(C)c(=O)c3[nH]ccc23)c1 (centres unmarked) [Compound I-125, N-[3-(3-chloro-4-cyano-phenoxy)-2,2,4,4-tetramethyl-cyclobutyl]-2-[4-[3-[3-[4-isopropyl-2-(6-methyl-7-oxo-1H-pyrrolo[2,3-c]pyridin-4-yl)phenoxy]phenyl]propyl]piperazin-1-yl]pyrimidine-5-carboxamide] | < 0.5 | > 3 | < 0.5 | 1.5 to 3 | – | –
CCS(=O)(=O)Nc1ccc(Oc2cccc(C3CC(N(C)C4CCN(c5ncc(C(=O)N[C@H]6C(C)(C)[C@H](Oc7ccc(C#N)c(Cl)c7)C6(C)C)cn5)CC4)C3)c2)c(-c2cn(C)c(=O)c3[nH]ccc23)c1 (some centres unmarked) [Compound I-129] | < 0.5 | < 0.5 | – | – | < 0.5 | < 0.5
Cn1cc(-c2ccccc2Oc2cccc(CCCN3CCN(c4ncc(C(=O)NC5C(C)(C)C(Oc6ccc(C#N)c(Cl)c6)C5(C)C)cn4)CC3)c2)c2cc[nH]c2c1=O (centres unmarked) [Compound I-134, N-[3-(3-chloro-4-cyano-phenoxy)-2,2,4,4-tetramethyl-cyclobutyl]-2-[4-[3-[3-[2-(6-methyl-7-oxo-1H-pyrrolo[2,3-c]pyridin-4-yl)phenoxy]phenyl]propyl]piperazin-1-yl]pyrimidine-5-carboxamide] | < 0.5 | 0.5 to 1.5 | < 0.5 | 0.5 to 1.5 | – | –
Cn1cc(-c2ccccc2Oc2cccc(CCOC3CCN(c4ncc(C(=O)N[C@H]5C(C)(C)[C@H](Oc6ccc(C#N)c(Cl)c6)C5(C)C)cn4)CC3)c2)c2cc[nH]c2c1=O [Compound I-146] | < 0.5 | > 3 | – | – | < 0.5 | < 0.5
CC(C)c1ccc(Oc2cccc(CCOC3CCN(c4ncc(C(=O)N[C@H]5C(C)(C)[C@H](Oc6ccc(C#N)c(Cl)c6)C5(C)C)cn4)CC3)c2F)c(-c2cn(C)c(=O)c3[nH]ccc23)c1 [Compound I-148] | < 0.5 | > 3 | – | – | < 0.5 | 0.5 to 1.5
Cn1cc(-c2ccccc2Oc2cccc(CCOC3CCN(c4ncc(C(=O)N[C@H]5C(C)(C)[C@H](Oc6ccc(C#N)c(Cl)c6)C5(C)C)cn4)CC3)c2F)c2cc[nH]c2c1=O [Compound I-149] | < 0.5 | < 0.5 | – | – | < 0.5 | 0.5 to 1.5
CCS(=O)(=O)Nc1ccc(Oc2cccc(C3CC(C4CCN(c5ncc(C(=O)N[C@H]6C(C)(C)[C@H](Oc7ccc(C#N)c(Cl)c7)C6(C)C)cn5)CC4)C3)c2)c(-c2cn(C)c(=O)c3[nH]ccc23)c1 (some centres unmarked) [Compound I-157] | < 0.5 | > 3 | < 0.5 | < 0.5 | – | –
CCS(=O)(=O)Nc1ccc(Oc2cccc(COC3CCN(c4ncc(C(=O)N[C@H]5C(C)(C)[C@H](Oc6ccc(C#N)c(Cl)c6)C5(C)C)cn4)CC3)c2F)c(-c2cn(C)c(=O)c3[nH]ccc23)c1 [Compound I-164] | < 0.5 | > 3 | < 0.5 | < 0.5 | – | –
CCS(=O)(=O)Nc1ccc(Oc2cccc(CCC3CCN(c4ncc(C(=O)N[C@H]5C(C)(C)[C@H](Oc6ccc(C#N)c(Cl)c6)C5(C)C)cn4)CC3)c2F)c(-c2cn(C)c(=O)c3[nH]ccc23)c1 [Compound I-165] | < 0.5 | > 3 | < 0.5 | < 0.5 | – | –
Cn1cc(-c2cc(NS(=O)(=O)C3CC3)ccc2Oc2cccc(N3CC(CC4CCN(c5ncc(C(=O)N[C@H]6C(C)(C)[C@H](Oc7ccc(C#N)c(Cl)c7)C6(C)C)cn5)CC4)C3)c2F)c2cc[nH]c2c1=O [Compound I-170] | < 0.5 | > 3 | – | – | < 0.5 | 0.5 to 1.5
Cn1cc(-c2cc(NS(=O)(=O)C3CC3)ccc2Oc2cccc(N3CC(OC4CCN(c5ncc(C(=O)N[C@H]6C(C)(C)[C@H](Oc7ccc(C#N)c(Cl)c7)C6(C)C)cn5)CC4)C3)c2F)c2cc[nH]c2c1=O [Compound I-171] | < 0.5 | > 3 | – | – | > 3 | < 0.5
CCS(=O)(=O)Nc1ccc(Oc2cccc(N3CC(N(C)C4CCN(c5ncc(C(=O)N[C@H]6C(C)(C)[C@H](Oc7ccc(C#N)c(Cl)c7)C6(C)C)cn5)CC4)C3)c2F)c(-c2cn(C)c(=O)c3[nH]ccc23)c1 [Compound I-178] | < 0.5 | < 0.5 | – | – | < 0.5 | < 0.5
CC(C)c1ccc(Oc2cccc(OCCN3CCN(c4ncc(C(=O)N[C@H]5C(C)(C)[C@H](Oc6ccc(C#N)c(Cl)c6)C5(C)C)cn4)CC3)c2F)c(-c2cn(C)c(=O)c3[nH]ccc23)c1 [Compound I-179] | < 0.5 | > 3 | – | – | > 3 | 0.5 to 1.5
CCS(=O)(=O)Nc1ccc(Oc2cccc(C3CC(N4CCN(c5ncc(C(=O)N[C@H]6C(C)(C)[C@H](Oc7ccc(C#N)c(Cl)c7)C6(C)C)cn5)CC4)C3)c2)c(-c2cn(C)c(=O)c3[nH]ccc23)c1 (some centres unmarked) [Compound I-180] | < 0.5 | > 3 | < 0.5 | < 0.5 | – | –
CCS(=O)(=O)Nc1ccc(Oc2cccc(N3CC(OC4CCN(c5ncc(C(=O)N[C@H]6C(C)(C)[C@H](Oc7ccc(C#N)c(Cl)c7)C6(C)C)cn5)CC4)C3)c2)c(-c2cn(C)c(=O)c3[nH]ccc23)c1 [Compound I-181] | < 0.5 | > 3 | – | – | < 0.5 | < 0.5
CCS(=O)(=O)Nc1ccc(Oc2cccc(N3CCC(C4CN(c5ncc(C(=O)N[C@H]6C(C)(C)[C@H](Oc7ccc(C#N)c(Cl)c7)C6(C)C)cn5)C4)CC3)c2)c(-c2cn(C)c(=O)c3[nH]ccc23)c1 [Compound I-182] | < 0.5 | > 3 | < 0.5 | < 0.5 | – | –
Cn1cc(-c2cc(S(C)(=O)=O)ccc2Oc2cccc(N3CC(CC4CCN(c5ncc(C(=O)NC6C(C)(C)C(Oc7ccc(C#N)c(Cl)c7)C6(C)C)cn5)CC4)C3)c2F)c2cc[nH]c2c1=O (centres unmarked) [Compound I-189, N-[3-(3-chloro-4-cyano-phenoxy)-2,2,4,4-tetramethyl-cyclobutyl]-2-[4-[[1-[2-fluoro-3-[2-(6-methyl-7-oxo-1H-pyrrolo[2,3-c]pyridin-4-yl)-4-methylsulfonyl-phenoxy]phenyl]azetidin-3-yl]methyl]-1-piperidyl]pyrimidine-5-carboxamide] | < 0.5 | > 3 | > 3 | < 0.5 | – | –
Cn1cc(-c2cc(S(C)(=O)=O)ccc2Oc2cccc(N3CC(OC4CCN(c5ncc(C(=O)N[C@H]6C(C)(C)[C@H](Oc7ccc(C#N)c(Cl)c7)C6(C)C)cn5)CC4)C3)c2F)c2cc[nH]c2c1=O [Compound I-191] | < 0.5 | < 0.5 | – | – | < 0.5 | < 0.5
CC(C)N(CCOC1CCN(c2ncc(C(=O)N[C@H]3C(C)(C)[C@H](Oc4ccc(C#N)c(Cl)c4)C3(C)C)cn2)CC1)c1cccc(Oc2ccc(C(C)(C)O)cc2-c2cn(C)c(=O)c3[nH]ccc23)c1F [Compound I-209] | < 0.5 | < 0.5 | – | – | < 0.5 | < 0.5
